From the METLIN SMRT retention time set (Domingo-Almenara et al. 2019)

Test: gradient 5% acetonitrile 3 min, to 50% in 2 min, to 85% in 15 min, held 3 min, 100 µL/min
Conditions: column: Zorbax Extend-C18 2.1 x 50 mm; eluents: water / acetonitrile, 0.1% formic acid
Method in brief: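 Retention times come from adduct peaks that were picked computationally and then checked by hand. The standards, pure and pooled in mixtures of ~100 molecules, were run on a Zorbax Extend-C18 column (2.1 × 50 mm, 1.8 μm) at 100 μL/min with water and acetonitrile, each with 0.1% formic acid. Detection was by quadrupole time-of-flight mass spectrometry in positive and negative ionization mode, with a dead volume of 40 μL and a dwell volume of 900 μL.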

Row | RP-LC retention time [s] | Structure (SMILES)
1 | 1090 | CCCCOc1cccc(C(=O)N(Cc2ccc(Br)o2)C2CCS(=O)(=O)C2)c1 (centres undefined)
2 | 767 | COC(=O)c1ccc(Cn2cnc3nc4c(cc3c2=O)CCCC4)cc1
3 | 638 | COC(=O)c1ccc(NC(=O)COc2cc(C)nc(N3CCCC3)n2)cc1
4 | 775 | CN(C)CCNC(=O)CN1C(=O)C2CCCCN2c2ccc(S(=O)(=O)N3CCCC3)cc21 (centres undefined)
5 | 895 | CCCCN(C(=O)c1noc2c1CC(C)CC2)C1CCN(C(C)=O)CC1 (centres undefined)
6 | 1020 | Cc1ccc(-c2nc(-c3cccc(-c4ccn[nH]4)c3)no2)s1
7 | 1010 | CCc1nnc2ccc(-c3noc(-c4cc(Cl)ccc4F)n3)cn12
8 | 886 | CC1=C(c2ccc(F)cc2)S(=O)(=O)N=C1N1CCCN(C(=O)C2CCOC2)CC1 (centres undefined)
9 | 1090 | CCCCCNC(=O)C1CCCN(c2ncc(-c3ccccc3)cn2)C1 (centres undefined)
10 | 859 | CC(C)n1c(N2CCCN(C(=O)c3ccc(F)c(F)c3)CC2)cc(=O)n(C(C)C)c1=O
11 | 757 | CC(C)(Cc1c[nH]c2ccccc12)NCC(O)COc1ccccc1C#N (centres undefined)
12 | 808 | Cc1cc2nn(CC(=O)NCC3CCCO3)c(=O)n2c(Nc2ccccc2C)n1 (centres undefined)
13 | 644 | CC(C)(C)NC(=O)N1CCC(CNC(=O)c2ccccn2)CC1
14 | 942 | Cc1ccc(-n2nc(N3CCCC(C(=O)NCc4ccccc4F)C3)ccc2=O)cc1Cl (centres undefined)
15 | 1040 | Cc1cc(NC(=O)c2cn(Cc3cccc(F)c3)nc2OCc2cccc(F)c2)no1
16 | 682 | O=C1NCCCn2cc(S(=O)(=O)Nc3ccc(Cl)cc3)cc21
17 | 644 | CC1CCCN(CC2CCN(S(=O)(=O)c3ccc(C#N)cc3)CC2)C1 (centres undefined)
18 | 823 | Cc1sc(NC(=O)c2ccc3c(c2)OCO3)nc1-c1ccc2c(c1)N(C)C(=O)CO2
19 | 586 | COc1ccc(S(=O)(=O)N2CCc3nc[nH]c3C2)cc1
20 | 601 | OCCN(Cc1ccccc1)CC(O)COc1cccc2ccccc12 (centres undefined)
21 | 600 | O=C(NCCn1cccn1)c1nn(CCOc2ccccc2)c2c1CNCC2
22 | 680 | CCC(C)NC(=O)c1cc(C)nc2ccc(F)cc12 (centres undefined)
23 | 1000 | O=C(Cn1nc(N2CCSCC2)c2ccccc2c1=O)Nc1ccc(Br)cc1

Row | RP-LC retention time [s] | Structure (SMILES)
24 | 796 | Cc1cc(N2CCN(S(=O)(=O)c3ccccc3F)CC2)nc(NC2CCCCC2)n1
25 | 993 | CN(c1nc(-c2ccc([N+](=O)[O-])cc2)nc2ccccc12)C1CCCCC1
26 | 950 | CCOC(=O)c1c(NC(=O)CSc2nc(=O)n3cccc(C)c3n2)sc2c1CCC2
27 | 693 | COc1cc2c(cc1OC)C(/C=C/c1ccco1)=NCC2
28 | 764 | O=C(NC1CCN(c2ccc(F)cc2)C1=O)c1ccc2c(c1)OCO2 (centres undefined)
29 | 839 | O=C1CCC2(CCN1)CCN(S(=O)(=O)c1ccc(Cl)c(Cl)c1)CC2
30 | 713 | Cc1cccc(S(=O)(=O)N2CCC(n3cnnc3C3CC3)CC2)c1
31 | 817 | O=C(N1CCC(c2nc(C3CCOCC3)no2)CC1)C1(c2ccccc2)CC1
32 | 1090 | COc1cc2c(cc1Cc1cccc(Cl)c1F)c(=O)c(C(=O)O)cn2[C@H](CO)C(C)C
33 | 772 | COc1ccc2nc(C(=O)NCc3ccccc3)cn2n1
34 | 670 | O=S(=O)(c1cc(-c2nnc(C3CCCC3)o2)co1)N1CCC(N2CCCCC2)CC1
35 | 697 | O=C(NCCc1ccco1)C1CCN(c2nc3cccnc3s2)CC1
36 | 1130 | CCc1nc2cc(-c3noc(CCc4ccc(OC)cc4)n3)ccc2o1
37 | 990 | Cc1ccc(Nc2c(-c3ccc(N(C)C)cc3)nc3cnccn23)cc1Br
38 | 811 | COc1cccc2cc(C(=O)Nc3nc4c(s3)CN(S(=O)(=O)C3CC3)CC4)oc12
39 | 590 | COCCc1nc(C2CCCN(C(=O)c3sccc3C)C2)n[nH]1 (centres undefined)
40 | 1070 | Nc1c(C(=O)NCC2CCCO2)c2nc3ccccc3nc2n1C1CCCC1 (centres undefined)
41 | 754 | CC(NC(=O)C1CCN(C(=O)c2ncn3c2COC(c2ccccc2)C3)CC1)c1ccccc1 (centres undefined)
42 | 606 | CCC(=O)Nc1ccc(C2(C(=O)NCCN3CCCC3)CCCCC2)cc1
43 | 841 | Cc1cc(SCC(=O)Nc2nc(-c3ccccc3)cs2)nc(C)n1
44 | 743 | COc1ccccc1NC(=O)NCCc1nc2cccnc2n1C1CCCCC1
45 | 566 | NC(=O)C1CCC(=O)N1C1CCN(C(=O)CCC2CCCC2)CC1 (centres undefined)
46 | 597 | CC1CCCN(c2ncc(C(=O)NCc3ccccc3)c(N)n2)C1 (centres undefined)

Row | RP-LC retention time [s] | Structure (SMILES)
47 | 670 | CCCNC(=O)C1CCN(c2ccc(SCC(=O)Nc3ccccc3Br)nn2)CC1
48 | 676 | N=c1nc(N2CCCCC2)cc(N)n1O
49 | 701 | O=C(N[C@H]1C[C@@H]2C[C@H]1CN2C(=O)c1ccccc1Cl)c1cccs1
50 | 697 | CC(C)NC(=O)c1ccc(-c2nc3cc(NS(=O)(=O)c4ccc(F)cc4F)ccc3n2C)cc1
51 | 660 | COc1cc(-n2cnc3cc(C(=O)NCC4CCCO4)ccc32)cc(OC)c1OC (centres undefined)
52 | 877 | O=c1c(=O)n(-c2ccccc2)ccn1Cc1nc(-c2ccc(Cl)cc2)no1
53 | 694 | CCOC(=O)c1c(C)[nH]c(C(=O)N2CCC(CC(=O)NCc3ccc(OC)cc3)CC2)c1C
54 | 926 | Cc1csc(-c2cc(S(=O)(=O)NC(C)(C)C)cn2CC(=O)N2CCCCC2)n1
55 | 943 | Cc1ccc(CNC(=O)c2ccc(Cn3c(C(F)(F)F)nc4cccnc43)cc2)cc1
56 | 821 | CC1=C(c2ccccc2)S(=O)(=O)N=C1N1CCCN(C(=O)c2ccc(C)s2)CC1
57 | 660 | CCOc1ccc(NC(=O)N2CC(=O)N(CC(=O)N3CCC(C(N)=O)CC3)c3ccccc32)cc1
58 | 829 | COc1ccc(N2CCN(C(=O)c3cc4cc5cc(OC)ccc5nc4o3)CC2)cc1
59 | 764 | O=C(NCC1CCOCC1)Nc1ccc(Cl)cc1F
60 | 863 | O=c1n(Cc2ccc(F)cc2Cl)nc2ccc(S(=O)(=O)N3CCOCC3)cn12
61 | 1190 | COC(=O)c1ccc(NS(=O)(=O)c2cccc(-c3nc(-c4ccc(C)cc4)no3)c2)cc1
62 | 1030 | CCOc1ccccc1-c1csc(NC(=O)c2sc(COc3cc(C)ccc3C)nc2C)n1
63 | 906 | Cc1cccc(S(=O)(=O)N2C[C@@H](F)C[C@H]2C(=O)N2CCc3ccccc3C2)c1
64 | 901 | CC1CCN(C(=O)CSc2nnc(-c3ccccc3F)o2)CC1
65 | 680 | Cc1cc(SCC(=O)Nc2ccc3c(c2)OCO3)nc(-c2cnccn2)n1
66 | 1240 | CN(C)c1ccc(/C=C2\C=Cc3ccccc32)cc1
67 | 932 | COC(=O)c1ccccc1Nc1c(-c2ccc3c(c2)OCO3)nc2cnccn12
68 | 733 | Clc1ccc(Cl)c(-c2ccc(CNCc3ccccn3)o2)c1
69 | 1030 | CCn1c(=O)c(N2CCN(C(=O)Nc3ccc(Br)cc3)CC2)nc2ccccc21

Row | RP-LC retention time [s] | Structure (SMILES)
70 | 767 | Cc1noc2nc(CCC(=O)NCc3ccccc3F)nc(N3CCCC3)c12
71 | 736 | Cc1ccc(NC(=O)N2CCC(c3cc(N)on3)CC2)c(Cl)c1
72 | 948 | O=C(Nc1cc(F)ccc1F)N1CCC(CCNC(=O)C2(c3ccccc3)CC2)CC1
73 | 754 | CC(C)N1CCCn2cc(S(=O)(=O)Nc3ccc(F)cc3)cc2C1=O
74 | 627 | CCNc1cc(N2CCC(CCC(=O)NCc3cccs3)CC2)ncn1
75 | 601 | CCCc1cc(N2CCN(C(=O)c3cccs3)CC2)nc2nncn12
76 | 634 | CC1(C)CC(=O)c2cn(-c3ccc(F)cc3)c(=O)c(C(=O)N3CCC(N4CCCCC4)CC3)c2C1
77 | 691 | O=C(CCc1c(-c2ccccc2)nc2ccccn12)Nc1ccccc1C(F)(F)F
78 | 1110 | CCOc1ccc(-c2noc(CS(=O)(=O)c3cc(C)c(C)cc3C)n2)cc1
79 | 963 | O=C(NCc1ccc(F)cc1)C1CCCN(c2nc3ccsc3c(=O)n2Cc2ccc(F)cc2)C1 (centres undefined)
80 | 583 | CCCS(=O)(=O)N1CCC(Cc2nc(-c3cccnc3)n[nH]2)C1 (centres undefined)
81 | 610 | CCNc1cc(N2CCCC(CCC(=O)N3CCN(C(=O)c4ccco4)CC3)C2)ncn1 (centres undefined)
82 | 799 | O=C(Cc1ccc(Cl)cc1)NC1CCN(c2nnc3ccc(C(F)(F)F)cn23)CC1
83 | 611 | CC(=O)NCCc1nc2ccccc2n1CCCOc1cccc2ccccc12
84 | 743 | O=c1n(Cc2cc(F)cc(F)c2)nc2c(S(=O)(=O)N3CCOCC3)cccn12
85 | 893 | COc1ccc(C(C)NC(=O)c2nnc(-c3ccc(S(=O)(=O)N(C)C)cc3)o2)cc1 (centres undefined)
86 | 752 | O=C(CN1CCN(Cc2ccccc2)C(=O)C1=O)N1CCN(c2ccccc2F)CC1
87 | 779 | CCN1C(=O)c2cccnc2Sc2cc(CNC(=O)c3sccc3C)ccc21
88 | 586 | O=C(NCCCN1CCOCC1)c1ccc2ccnc(N3CCN(c4ccccc4)CC3)c2c1
89 | 567 | CCn1ncc(C(=O)NCCn2c(C)cnc2C2CCC2)c1C
